Assay results as given in PubChem BioAssay (NCI).
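Five concentrations, 48 hours, 96-well plates. The concentration for full growth arrest is given as TGI.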

What was measured:
Assay in all cases: inhibition of tumour cell growth, NCI panel, 48 h
786-0 renal = tested on: 786-0 renal
A498 renal = tested on: A498 renal
A549 NSCLC = tested on: A549 NSCLC
ACHN renal = tested on: ACHN renal
BT-549 breast = tested on: BT-549 breast
CAKI-1 renal = tested on: CAKI-1 renal
CCRF-CEM leukemia = tested on: CCRF-CEM leukemia
COLO 205 colon = tested on: COLO 205 colon
DU-145 prostate = tested on: DU-145 prostate
EKVX NSCLC = tested on: EKVX NSCLC
HCC-2998 colon = tested on: HCC-2998 colon
HCT-116 colon = tested on: HCT-116 colon
HCT-15 colon = tested on: HCT-15 colon
HL-60(TB) leukemia = tested on: HL-60(TB) leukemia
HOP-62 NSCLC = tested on: HOP-62 NSCLC
HOP-92 NSCLC = tested on: HOP-92 NSCLC
HS 578T breast = tested on: HS 578T breast
HT29 colon = tested on: HT29 colon
IGROV1 ovarian = tested on: IGROV1 ovarian
K-562 leukemia = tested on: K-562 leukemia
KM12 colon = tested on: KM12 colon
LOX IMVI melanoma = tested on: LOX IMVI melanoma
MALME-3M melanoma = tested on: MALME-3M melanoma
MCF7 breast = tested on: MCF7 breast
MDA-MB-231 breast = tested on: MDA-MB-231 breast
MDA-MB-435 = tested on: MDA-MB-435
MOLT-4 leukemia = tested on: MOLT-4 leukemia
NCI-H226 lung = tested on: NCI-H226 lung
NCI-H23 lung = tested on: NCI-H23 lung
NCI-H460 lung = tested on: NCI-H460 lung
NCI-H522 lung = tested on: NCI-H522 lung
NCI/ADR-RES ovarian = tested on: NCI/ADR-RES ovarian
OVCAR-4 ovarian = tested on: OVCAR-4 ovarian
OVCAR-5 ovarian = tested on: OVCAR-5 ovarian
OVCAR-8 ovarian = tested on: OVCAR-8 ovarian
PC-3 prostate = tested on: PC-3 prostate
RPMI-8226 leukemia = tested on: RPMI-8226 leukemia
RXF 393 renal = tested on: RXF 393 renal
SF-268 CNS = tested on: SF-268 CNS
SF-295 CNS = tested on: SF-295 CNS
SF-539 CNS = tested on: SF-539 CNS
SK-MEL-2 melanoma = tested on: SK-MEL-2 melanoma
SK-MEL-28 melanoma = tested on: SK-MEL-28 melanoma
SK-MEL-5 melanoma = tested on: SK-MEL-5 melanoma
SNB-19 CNS = tested on: SNB-19 CNS
SNB-75 CNS = tested on: SNB-75 CNS
SR leukemia = tested on: SR leukemia
SW-620 colon = tested on: SW-620 colon
T-47D breast = tested on: T-47D breast
TK-10 renal = tested on: TK-10 renal
U251 CNS = tested on: U251 CNS
UACC-257 melanoma = tested on: UACC-257 melanoma
UACC-62 melanoma = tested on: UACC-62 melanoma
UO-31 renal = tested on: UO-31 renal

In the case of `CC(=O)Oc1c(-c2ccccc2)sc2ccccc12`, the TGI (786-0 renal) is reported as 28.9 µM, the TGI (A498 renal) is reported as 34.5 µM and the TGI (A549 NSCLC) is reported as 37.9 µM. It also gave a TGI (ACHN renal) of 32 µM, a TGI (BT-549 breast) of 50 µM and a TGI (CAKI-1 renal) of 22.8 µM. For the same molecule, the TGI (CCRF-CEM leukemia) was 37 µM, the TGI (COLO 205 colon) was 30.2 µM and the TGI (DU-145 prostate) was 27.9 µM. The TGI (EKVX NSCLC) was 53 µM, the TGI (HCC-2998 colon) was 32 µM and the TGI (HCT-116 colon) was 26.1 µM. For the same molecule, the TGI (HCT-15 colon) was 37.1 µM, the TGI (HL-60(TB) leukemia) was 39.6 µM and the TGI (HOP-62 NSCLC) was 45.7 µM. The TGI (HOP-92 NSCLC) was 49.8 µM, the TGI (HS 578T breast) was 40.6 µM and the TGI (HT29 colon) was 35.3 µM. The TGI (IGROV1 ovarian) was 30.7 µM, the TGI (K-562 leukemia) was 36.2 µM and the TGI (KM12 colon) was 52.3 µM. For the same molecule, the TGI (LOX IMVI melanoma) was 26.4 µM, the TGI (MALME-3M melanoma) was 37.2 µM and the TGI (MCF7 breast) was 56.4 µM. For the same molecule, the TGI (MDA-MB-231 breast) was 33.4 µM, the TGI (MDA-MB-435) was 59 µM and the TGI (MOLT-4 leukemia) was 40.7 µM. It also gave a TGI (NCI-H226 lung) of 28.8 µM, a TGI (NCI-H23 lung) of 38.7 µM and a TGI (NCI-H460 lung) of 27.7 µM. For the same molecule, the TGI (NCI-H522 lung) was 51.3 µM, the TGI (NCI/ADR-RES ovarian) was 59.1 µM and the TGI (OVCAR-4 ovarian) was 73.4 µM. The TGI (OVCAR-5 ovarian) was 61.5 µM, the TGI (OVCAR-8 ovarian) was over 100 µM and the TGI (PC-3 prostate) was 97.5 µM. The TGI (RPMI-8226 leukemia) was 24.8 µM, the TGI (RXF 393 renal) was 28.1 µM and the TGI (SF-268 CNS) was 71.2 µM. It also gave a TGI (SF-295 CNS) of 40.3 µM, a TGI (SF-539 CNS) of 46.8 µM and a TGI (SK-MEL-2 melanoma) of 31.4 µM. It also gave a TGI (SK-MEL-28 melanoma) of 53.1 µM, a TGI (SK-MEL-5 melanoma) of 44.5 µM and a TGI (SNB-19 CNS) of over 100 µM. For the same molecule, the TGI (SNB-75 CNS) was 34.8 µM, the TGI (SR leukemia) was 29.4 µM and the TGI (SW-620 colon) was over 100 µM. The TGI (T-47D breast) was 44.5 µM, the TGI (TK-10 renal) was 65.1 µM and the TGI (U251 CNS) was 39.8 µM. The TGI (UACC-257 melanoma) was 37 µM, the TGI (UACC-62 melanoma) was 63.2 µM and the TGI (UO-31 renal) was 36.6 µM.
